Reference: a melting point compilation (Tetko et al.; mined from patent text by program, amines drawn as free bases though some values may be those of a salt)

Row | SMILES | melting point
1 | Cc1c(F)cc(C(=O)NC2CC2)cc1-n1cc(Br)nc(NC2(c3ccccc3OCCN(C)C(=O)OCc3ccccc3)CC2)c1=O | 116 to 120 °C
2 | COc1ccc2c(c1)C(CCCN1C(=O)c3ccccc3C1=O)=CCO2 | 78 to 80 °C
3 | CCCCNC(=O)NCCCCCCCCCCCCN | 97 °C
4 | CN(C)C(=O)N1CCC(=NO)c2cc(F)ccc21 | 147 to 150 °C
5 | CS(=O)(=O)N(CCO)c1c(Cl)c(C(F)(F)F)cc2[nH]c(=O)c(=O)[nH]c12 | 292 to 294 °C
6 | O=C1c2ccccc2C(Nc2ccccn2)N1CCCN1CC=C(c2ccccc2)CC1 (stereo unspecified) | 153 °C
7 | COc1ccc([C@@H]2O[C@H]2C(=O)Nc2ccccc2)cc1 | 162 to 163 °C
8 | Cc1cc(N)cc(C)c1NC(=O)CN1CCN(CCCC(c2ccc(F)cc2)c2ccc(F)cc2)CC1CO (stereo unspecified) | 85.2 °C
9 | COc1ccc(C(=O)c2ccccn2)cc1OC | 91.5 to 93 °C
10 | COc1ccc(/C=C/S(=O)(=O)CS(=O)(=O)/C=C/c2ccc(OC)c(O)c2)cc1N | 148 to 150 °C
11 | CC(O)Cn1cnc2c(N)nc3ccccc3c21 (stereo unspecified) | 216 to 221 °C
12 | COc1cc(C)c(S(=O)(=O)c2ccccc2C)cc1OC | 126 to 128 °C
13 | CN(C(=O)CCCOc1ccc([N+](=O)[O-])c(C=O)c1)C1CCCCC1 | 98 to 100 °C
14 | O=C(Nc1ccc(Cl)cc1)c1cc(Br)c2cccnc2c1O | 213 to 215 °C
15 | CC(C)CCN1C(=O)C(NC(=O)Nc2ccccc2)C(=O)N(CCN(C)C)c2ccccc21 (stereo unspecified) | 159 to 161 °C
16 | ClC(Cl)=CCOc1cc(Cl)c(OCCC2COC(c3ccc(Cl)cc3)O2)c(Cl)c1 (stereo unspecified) | 84.1 °C
17 | CCC1c2ccccc2-c2sc(Br)cc2N1S(=O)(=O)c1ccc(O)cc1 (stereo unspecified) | 183 to 185 °C
18 | COC(=O)c1ccc(NCc2ccccc2)cn1 | 104 to 107 °C
19 | c1ccc(C(c2ccccc2)N2CCCC2)cc1 | 69 to 72 °C
20 | CCCCn1c(=O)n(C)c(=O)c2nn(S(=O)(=O)CCCCl)cc21 | 105 to 106 °C
21 | CC(C)C(=N)Nc1ccccc1N1CCOCC1 | 138 °C
22 | CCCCCCCCC=CCCCCCCCCOCC(CN(C)C)OCCCCCCCCC=CCCCCCCCC (stereo unspecified) | 35 to 38 °C
23 | CCCCC(CNc1nc(C)c(OC(=O)OCC)c(C)n1)c1ccccc1 (stereo unspecified) | 105 to 107 °C
24 | O=C(O)c1ccc(NC(O)C(=O)c2ccc(OCC3CCCCC3)cc2)cc1 (stereo unspecified) | 188 to 190 °C
25 | CNC(=O)c1ccccc1NC(=O)COc1ccc(C(C)=O)cc1 | 252 to 253 °C
26 | O=C1CCC(=C2CCC(C3CCCCC3)CC2)CC1 (stereo unspecified) | 81 to 81.5 °C

Row | SMILES | melting point
27 | CSc1nc(-c2cc(C(=O)N(C)C)ccc2C)c2c(n1)N(c1c(F)cccc1F)C(=O)NC2 | 144 to 147 °C
28 | CN(C)C(=O)C(Nc1ccccc1)c1ccccc1 (stereo unspecified) | 134 to 137 °C
29 | Cn1c(C(F)(F)F)ccc(-c2c(Cl)cc(Cl)c3oc(C(Br)(Br)Br)cc23)c1=O | 225 to 227 °C
30 | Cc1cc(C(F)(F)C(F)(F)F)ccc1NC(=O)c1cccc(I)c1C(=O)NC(C)C | 195 to 196 °C
31 | Cc1cccc(N2CCN(CCC3CN(C)C(=O)O3)CC2)c1 (stereo unspecified) | 72 to 74 °C
32 | CCCc1nn(C)c2c(=O)[nH]c(Cc3ccccc3NS(=O)(=O)CCCN(C)C)nc12 | 202 to 204 °C
33 | COc1ccc(-c2c(C(=O)CC(C)C)c(CBr)nc3cc(OC)c(OC)cc23)cc1OC | 159 to 161 °C
34 | O=c1c2cccc(Cl)c2nc2n1CCCO2 | 207 to 208 °C
35 | Nc1cc(Oc2cc(Cl)cc(Cl)c2)nc(C(=O)O)c1Cl | 196 °C
36 | COc1ccc(S(=O)(=O)Nc2nsc(-c3ccc(Cl)cc3)n2)cc1OC | 220 to 221 °C
37 | COc1ccccc1Oc1ccccc1N | 68 to 70 °C
38 | CCOC(=O)Cc1ccc(-c2cn3ccsc3n2)cc1 | 117 to 119 °C
39 | CCOCCc1ccc(OCCNc2ncnc3oc(C)c(C)c23)c(C)c1 | 92 to 93 °C
40 | CC(C)C(c1cncnc1C(F)(F)F)N1CCN(c2ccccc2)C1=O (stereo unspecified) | 126 to 128 °C
41 | CCOc1nn(-c2cc(C(F)(F)F)ccn2)cc1CCCOc1ccccc1CC(=O)O | 121 to 122 °C
42 | CC(C)(C)N1CCCC1=C(C#N)c1ccc(Cl)cc1 | 150 to 153 °C
43 | Cc1ccc2c(c1)CC(Cl)c1cc(F)ccc1S2 (stereo unspecified) | 63 to 64 °C
44 | C=CCN(CC=C)c1nc(NC(=O)C=C)n2oc(=O)nc2n1 | 157 to 161 °C
45 | COc1cc(C(=O)O)ccc1Cc1cn(C)c2ccc(CC(C)C(=O)NCC3CCCC3)cc12 (stereo unspecified) | 103 to 109 °C
46 | O=P(O)(O)Cc1ccc(-c2ccccc2)cc1 | 246 to 248 °C
47 | Cc1cccc(CC(=O)O)c1OCCCc1cn(-c2ccc(Cl)cn2)nc1C(C)(C)C | 112 to 113 °C
48 | Cc1csc2c(Cl)c(Cl)c(O)cc12 | 137 to 139 °C
49 | COc1ccccc1CN1CCN(CCCOc2ccc3c(C)cc(=O)[nH]c3c2)CC1 | 151 to 152 °C
50 | CCCCCCCCCCCCCN(O)C(=O)N(C)C | 57 to 58 °C
51 | CCNC(=O)C(c1ccccc1)N1CCN(c2ccc(NC(=O)c3ccccc3-c3ccc(C(F)(F)F)cc3)cc2)CC1 (stereo unspecified) | 123 °C
52 | CCOC(=O)c1cc(=O)c2c(OCC(C)(O)Oc3ccc(Br)cc3)cccc2o1 (stereo unspecified) | 79 to 80 °C

Row | SMILES | melting point
53 | O=C(O)Cc1ccc(-c2nc3cccc(Cl)c3o2)cc1 | 205 to 210 °C
54 | O=C(Nc1ccccc1-c1ccc(Cl)cc1F)c1cccnc1Cl | 124 to 126 °C
55 | CN1C=C(C(=O)Nc2ccccc2)C(C(F)(F)F)N1CO (stereo unspecified) | 191 °C
56 | O=C(COc1ccc2c(c1)OCO2)c1ccccc1 | 123 to 126 °C
57 | NCCCCCCOc1ccccc1C(=O)Nc1ccc(C(=O)N2CCCCc3ccccc32)cc1 | 136 to 138 °C
58 | N#Cc1ccc(-c2cn(-c3ccc(C#N)cc3)cn2)cc1 | 258 to 263 °C
59 | CN1CCCC1=NCCOS(=O)(=O)Oc1c[nH]c2ccccc12 | 154 to 158 °C
60 | Cc1ccc2c(c1)C(c1ccncc1)CC2(O)c1ccc(F)cc1 (stereo unspecified) | 187 to 192 °C
61 | COc1ccc2c(c1)c(Cc1cc(=O)n(C3CCCC3)[nH]1)c(C)n2C(=O)c1ccc(Cl)cc1 | 153 to 155 °C
62 | COc1cc(OC)c2c(=O)[nH]c(-c3cccc(-c4ccc(S(C)=O)s4)c3)nc2c1 (stereo unspecified) | 289 to 290 °C
63 | OC(c1cc(F)cc(F)c1)c1cc(F)cc(F)c1 | 62 °C
64 | Nc1nc2ccccc2c2c1ncn2Cc1ccncc1 | > 300 °C
65 | CC(C)OC(=O)c1ccc(Cl)cc1S(N)(=O)=O | 140 to 142 °C
66 | Clc1nc(Cl)c2occc2n1 | 107 °C
67 | CCC1(CC)OC(=O)C(Cn2cncn2)(c2ccc(Cl)cc2)O1 (stereo unspecified) | 105 to 108 °C
68 | CN(C)Cc1ccc(Cn2ccc(OCc3ccc(F)cc3F)c(Br)c2=O)cc1 | 111 to 113 °C
69 | CCCn1nc2c(N)nc3c(c2c1CCC1CCCCC1)CCCC3 | 173 to 174 °C
70 | N#Cc1cc2c(cc1F)OCC21C(=O)N(Cc2ncccc2C(F)(F)F)c2ccccc21 (stereo unspecified) | 209 to 211 °C
71 | O=C(O)c1cn2c(n1)COc1ccc(Cl)cc1-2 | 276 to 278 °C
72 | Clc1nn2c(-c3ccccc3Br)nnc2c2ccccc12 | 203 °C
73 | CC(=O)c1c(C)c(C)c(C(C)=O)c2c1C(=O)c1ccccc1C2=O | 222 to 224 °C
74 | N=C(NCC1(O)COc2ccccc2OC1)Nc1ccccc1 | 184 to 187 °C
75 | COc1ccc(-c2c(C(=O)Cl)sc3ccccc23)cc1OC | 113 °C
76 | CNC(=O)c1ccccc1S(=O)(=O)Cc1c(O[C@H](Cn2ccnc2)c2ccccc2)ccc2c1CCCC2=O | 249 to 251 °C
77 | O=c1cc(-c2ccncc2)nc2n1CCOCC2 | 156 to 159 °C
78 | CCN(CC)CCNC(=O)c1cc(Cl)c(N)cc1OCCS(=O)CC (stereo unspecified) | 92 to 94 °C

Row | SMILES | melting point
79 | CCc1cc(OCc2ccc(-c3ccccc3-c3nnn(C(c4ccccc4)(c4ccccc4)c4ccccc4)n3)cc2)c2nc(OC(C)C)c(Cl)cc2n1 | 179 to 183 °C
80 | S=C(NCCCN1CCCC1)NCCCN(Cc1ccc(Cl)c(Cl)c1)c1ccc(Br)cn1 | 122 to 124 °C
81 | O=C(NCc1ccccn1)Nc1cc(N2CC(CCc3ccccc3)OC2=O)ccn1 (stereo unspecified) | 194 to 195 °C
82 | CC(=O)N[C@@H](C)CO[C@H]1CC[C@H](n2cc3ccc(OCCC4CC4)cc3n2)CC1 | 98 to 99 °C
83 | COc1ccc(-c2c(C(=O)CC(C)C)c(CSc3nccn3C)nc3cc(OC)c(OC)cc23)cc1OC | 152 to 153 °C
84 | CC(=O)Nc1nc(CCc2ccc(NC(=O)CNC(=O)OC(C)(C)C)cc2)c(Cc2ccc(S(C)(=O)=O)cc2)s1 | 186 to 188 °C
85 | O=c1[nH]ccc2c1c(O)nc1cc(Cl)ccc12 | 340 to 342 °C
86 | O=C(O)C(CF)=NOCC=Cc1ccccc1 | 81 to 83 °C
87 | O=Cc1csc(-c2ccccc2)c1 | 64 to 65 °C
88 | Cc1cc(SC(C)C)c(NC(=O)CCCSc2nc3cccc(C(F)(F)F)c3o2)c(SC(C)C)n1 | 135 to 136 °C
89 | CC(C)c1ccc(C2C(=O)Oc3ccc(Br)cc32)cc1 (stereo unspecified) | 157 to 158 °C
90 | CS(=O)c1ccc(C(=O)c2cnoc2C2CC2)c(Cl)c1 (stereo unspecified) | 117 °C
91 | NC(CC(=O)O)C1CC=CCC1 (stereo unspecified) | 208 to 210 °C
92 | O=C(c1ccc(-c2cc(-c3c[nH]nc3-c3ccccn3)ccn2)cc1)N1CCOCC1 | 155 °C
93 | CCOC(=O)Cc1c(C)n(Cc2cccc(OC)c2)c2ccc(OC)cc12 | 88 to 90 °C
94 | COc1ccc(-c2cc3cc(OC)cc([N+](=O)[O-])c3o2)cc1 | 141 °C
95 | Cn1cc(C(=O)NCc2ccc(Cl)cc2)c(=O)c2scc(COCC[Si](C)(C)C)c21 | 135 to 136 °C
96 | CC(=O)N1CC(C)C(=O)N(C(C)=O)C1=O (stereo unspecified) | 130 to 131 °C
97 | C[C@H](CO)NN1c2[nH]c(=O)cnc2C=NC1SCc1cccc(C(F)(F)F)c1F (stereo partly specified) | 217 to 219 °C
98 | COC(=O)C(C)(C)CCCOc1cc(C)c(OC(=O)Nc2c(C(C)C)cccc2C(C)C)cc1C | 111 to 112 °C
99 | Fc1ccc(-c2cnc3ccccc3n2)cc1 | 122 °C
100 | CC(=O)Nc1ccc(C=O)c(F)c1F | 154 °C
101 | O=C(O)COCC(=O)N1CCC(C(c2ccccc2)c2ccccc2)CC1 | 140 to 141 °C
